Assay results reported in ChEMBL document CHEMBL2331077, “Sacchathridine A, a prostaglandin release inhibitor from Saccharothrix sp” (J Nat Prod, 2013).
Active and inactive are the calls of the source. The rule behind the calls is not given here.

What was measured:
SW982 [1] = assay: Growth inhibition of human SW982 cells up to 30 uM after 48 hrs by cell counting; type: functional, cell-based
SW982 [2] = assay: Inhibition of PGE2 release from bradykinin-stimulated human SW982 cells by fluorescence assay; type: functional, cell-based

Compound: COC1=C(C)C(=O)c2ccc(O[C@@H]3O[C@@H](C)[C@H](O)[C@@H](O)[C@H]3O)c(NNC(C)=O)c2C1=O [SACCHATHRIDINE A]
- growth inhibition (GI) (SW982 [1]): inactive
- IC50 (SW982 [2]): 1000 nM
- inhibition (SW982 [2]): Dose-dependent effect

Compound: CS(=O)(=O)c1ccc(-n2nc(C(F)(F)F)cc2-c2ccc(F)cc2)cc1 [SC-58125]
- IC50 (SW982 [2]): 33 nM
